Values joined by “and” are separate entries in the source; they are usually repeats but may differ in a detail not shown here. Equal values may be shown once. “Also recorded” adds a separate entry of the source. Positions of bridges follow the written chain, without caps; N, C: chain ends. Residues, ends and D or L forms follow the SMILES beside them.
Tests used:
L-type = type: cell-based, mouse
[1] = test system: CFA-injected mice (C57 Bl6); conditions: mouse, in vivo
[2] = test system: N-type calcium channels with auxiliary subunits; conditions: cited from earlier work
patients = conditions: in vivo; cited from earlier work
[3] = test system: P/Q-type channels (Cav2.1); type: cell-based, mouse

Compound: COCCOC(=O)C1=C(C)NC(C)=C(C(=O)OC(C)C)C1c1cccc([N+](=O)[O-])c1 (centres unmarked) [nimodipine]
- inhibition of total ICa (L-type contribution) (L-type): 5% and 4%

Compound: CSCC[C@@H]1NC(=O)[C@H](CC(C)C)NC(=O)[C@H](CCCCN)NC(=O)[C@H](CO)NC(=O)[C@@H]2CSSC[C@@H]3NC(=O)[C@H](CO)NC(=O)CNC(=O)[C@H](CO)NC(=O)[C@H](CSSC[C@H](N)C(=O)N[C@@H](CCCCN)C(=O)N[C@@H](CO)C(=O)N[C@@H](CCCCN)C(=O)NCC(=O)N[C@@H](C)C(=O)N[C@@H](CCCCN)C(=O)N2)NC(=O)[C@H](CSSC[C@@H](C(N)=O)NC(=O)[C@H](CCCNC(=N)N)NC(=O)CNC(=O)[C@H](C(C)C)NC(=O)[C@H]([C@@H](C)O)NC(=O)CNC(=O)[C@H](CO)NC3=O)NC(=O)[C@H](CC(=O)O)NC(=O)[C@H](Cc2ccc(O)cc2)NC1=O [CVID] (H-CKSKGAKCSKLMYDCCSGSCSGTVGRC-NH2; disulfide 1-16, 8-20, 15-27)
- reversal of CFA-induced incapacitance (impaired weight bearing) [1]: partially reversed impaired weight bearing; also recorded: most effective at reversing mechanical alldoynia; also recorded: most effective at reversal of pain; also recorded: reverse signs of inflammatory pain
- affinity for N-type calcium channels in presence of α2δ subunits [2]: significantly reduces the affinity
- recovery from block in presence of α2δ subunits [2]: decreasing recovery from CVID block
- side-effect profile of irreversible ω-conotoxins (patients): high side-effect profile

Compound: CC(C)C[C@@H]1NC(=O)[C@H](CCCNC(=N)N)NC(=O)[C@@H]2CSSC[C@@H]3NC(=O)[C@H](CO)NC(=O)[C@H](C)NC(=O)CNC(=O)[C@H](CCCCN)NC(=O)CNC(=O)[C@H](CCCCN)NC(=O)[C@@H](N)CSSC[C@H](NC(=O)[C@H](CSSC[C@@H](C(N)=O)NC(=O)[C@H](CCCNC(=N)N)NC(=O)CNC1=O)NC(=O)[C@H](CC(=O)O)NC(=O)[C@H](Cc1ccc(O)cc1)NC(=O)[C@H](CO)NC(=O)[C@H]([C@@H](C)O)NC(=O)[C@H](CCCNC(=N)N)NC(=O)[C@H](CCCNC(=N)N)NC3=O)C(=O)N[C@@H]([C@@H](C)O)C(=O)NCC(=O)N[C@@H](CO)C(=O)N2 [CVIF] (H-CKGKGASCRRTSYDCCTGSCRLGRC-NH2; disulfide 1-16, 8-20, 15-25)
- reversal of CFA-induced incapacitance (impaired weight bearing) [1]: did not produce significant reversal of incapacitance

Compound: C[C@@H]1NC(=O)CNC(=O)[C@H](CCCCN)NC(=O)CNC(=O)[C@H](CCCCN)NC(=O)[C@@H](N)CSSC[C@@H]2NC(=O)[C@@H]3CSSC[C@@H](C(N)=O)NC(=O)[C@H](CCCNC(=N)N)NC(=O)CNC(=O)[C@H](CO)NC(=O)[C@H](CCCNC(=N)N)NC(=O)[C@H](CSSC[C@H](NC(=O)[C@H](CO)NC1=O)C(=O)N[C@@H](CCCNC(=N)N)C(=O)N[C@@H](CCCNC(=N)N)C(=O)N[C@@H]([C@@H](C)O)C(=O)N[C@@H](CO)C(=O)N[C@@H](Cc1ccc(O)cc1)C(=O)N[C@@H](CC(=O)O)C(=O)N3)NC(=O)[C@H](CO)NC(=O)CNC(=O)[C@H]([C@@H](C)O)NC2=O [CVIE]
- reversal of CFA-induced incapacitance (impaired weight bearing) [1]: partially reversed impaired weight bearing; also recorded: most effective at reversing mechanical alldoynia; also recorded: significant reversal of incapacitance; also recorded: most effective at reversal of pain; also recorded: reverse signs of inflammatory pain

Compound: ω-agatoxin IVA
- inhibition of total ICa (P/Q-type contribution) [3]: approximately 30%

Source: publication PMC3853768 (Molecular Pain, 2013)
